{"source": "patent US20030161893A1", "about": "“PTPase inhibitors and methods of using the same” (priority 2001, published 2003)", "key": {"NB4 cells": {"tested_on": "NB4 cells", "assay": "NB4 cell growth (MTT), cell cycle and Annexin V", "assay_type": "cell-based, human", "method": "The NB4 cell line (Lanotte et al., Blood 77, 1080 (1991)) was a gift from Dr. Dan Lindner of the Cleveland Clinic Foundation. […] and U937 cell lines were purchased from American Type Culture Collection (Rockville, Md.). These human […] cell lines were maintained in RPMI 1640 medium supplemented with 10% fetal calf serum (FCS). For cell proliferation assays, cells were cultured at 37° C. in 10% FCS medium containing various amounts of sodium stibogluconate for 6 days. The cell numbers in the cultures were determined by an MTT assay as described previously in Mosmann, J. Imunol. Methods 65, 55 (1983).\nThe cell cycle was analyzed by flow cytometry after 3 days of culture of NB4 cells in the absence or presence of sodium stibogluconate (250 μg/ml) or ATRA (1 μM). Briefly, the cells were fixed in cold ethanol and incubated for 30 minutes at 4° C. in the dark with a solution of […] propidium iodide, 1 mg/ml RNase and 0.1% NP-40. Analysis was performed immediately after staining using the CELLFIT program (Becton Dickinson, Mountain View, Calif.).\nAnnexin V staining of exposed membrane phospholipid phosphatidylserine (PS) was done using the Annexin V assay kit (Pharmingen, San Diego, Calif.). Briefly, NB4 cells were cultured in the 10% FCS RPMI 1640 medium in the absence or presence of sodium stibogluconate (250 μg/ml) or ATRA (1 μM) for 3 days. Cells were then washed in PBS twice and stained in binding buffer (10 mM Hepes, pH 7.4; 140 mM NaCl; 2.5 mM CaCl2) containing Annexin V-FITC and propidium iodide for 15 min. The reaction was stopped by adding 10 volumes of binding buffer and analyzed by FACS (Becton Dickinson Facsvantage)."}, "LoVo cells": {"tested_on": "LoVo cells", "assay": "Cell growth assay (MTT), LoVo colon cancer cells", "assay_type": "cell-based, human", "conditions": "100 μg/ml, day 6", "method": "(§1) NIH3T3 (Yi, et al., Blood 85, 87 (1995)), WM9 (Forsberg, et al., Proc. Nat. Acad Sci. USA 90, 393 (1993)), DU145 (Mickey, et al., Cancer Res. 37, 4049 (1977)), LoVo (Drewinko, et al., Cancer Res. 36, 467 (1976)), HEY (Buick, et al., Cancer Res. 45, 3668 (1985)), U251 (Yoshida, et al., Cancer 50, 410 (1982)), A549 (Giard, et al., J. Natl. Cancer Inst. 51, 1417 (1973)) and SK-N-SH (Helson, et al., Cancer Res. 35, 2594 (1975)) cell lines have been described and were cultured in RPMI 1640 supplemented with 10% fetal calf serum (FCS). For measurement of sodium stibogluconate effects on cell growth in vitro, cells were cultured in the absence (−) or presence (+) of various amounts of sodium stibogluconate for 6 days with viable cells quantified by MTT assays (Mosmann, J. Imunol. Methods 65, 55 (1983)). Percentages of growth inhibition by sodium stibogluconate were calculated (+/−×%)."}, "Stat1": {"tested_on": "Stat1", "assay": "IFN-alpha-induced Stat1 tyrosine phosphorylation, WM35 cells", "assay_type": "cell-based, human", "method": "For induction of Stat1 tyrosine phosphorylation by IFN-alpha in the absence or presence of sodium stibogluconate, cells grown in 10% FCS RPMI 1640 medium at 37° C. were stimulated with IFN-alpha (50 u/ml) for various time points and treated with or without sodium stibogluconate for 5 minutes prior to termination by lysing the cells in cold lysis buffer (1% NP-40; 50 mM Tris, pH 7.4; 100 mM NaCl; 1 mM EDTA, 10% glycerol, 10 mM sodium molybdic acid and 4 mM AEBSF).\nCell lysates were prepared by lysing cells in cold lysis buffer for 30 min and cleared by centrifuging at 14,000 rpm at 4° C. for 15 min. For SDS-PAGE, cell lysates were mixed with equal volume of 2×SDS-PAGE sample buffer, heated at 90° C. for 5 min and separated in 10% SDS-PAGE gels. Cellular proteins in SDS-PAGE gels were transferred to nitrocellulose membrane (Schleicher & Schuell, Keene, N.H.), blocked in 5% milk, probed with antibodies and detected by using an enhanced chemiluminescence kit (ECL, Amersham, Arlington Heights, Ill.)."}, "SK-N-SH cells": {"tested_on": "SK-N-SH cells", "assay": "Cell growth assay (MTT), SK-N-SH neuroblastoma cells", "assay_type": "cell-based, human", "conditions": "100 μg/ml, day 6", "method": "as §1"}, "SHP-1": {"target": "T1, SHP-1 (Mus musculus, UniProt P29351)", "T1 construct": "made in house", "T1 sequence (P29351 whole entry, the tested form may be a part)": "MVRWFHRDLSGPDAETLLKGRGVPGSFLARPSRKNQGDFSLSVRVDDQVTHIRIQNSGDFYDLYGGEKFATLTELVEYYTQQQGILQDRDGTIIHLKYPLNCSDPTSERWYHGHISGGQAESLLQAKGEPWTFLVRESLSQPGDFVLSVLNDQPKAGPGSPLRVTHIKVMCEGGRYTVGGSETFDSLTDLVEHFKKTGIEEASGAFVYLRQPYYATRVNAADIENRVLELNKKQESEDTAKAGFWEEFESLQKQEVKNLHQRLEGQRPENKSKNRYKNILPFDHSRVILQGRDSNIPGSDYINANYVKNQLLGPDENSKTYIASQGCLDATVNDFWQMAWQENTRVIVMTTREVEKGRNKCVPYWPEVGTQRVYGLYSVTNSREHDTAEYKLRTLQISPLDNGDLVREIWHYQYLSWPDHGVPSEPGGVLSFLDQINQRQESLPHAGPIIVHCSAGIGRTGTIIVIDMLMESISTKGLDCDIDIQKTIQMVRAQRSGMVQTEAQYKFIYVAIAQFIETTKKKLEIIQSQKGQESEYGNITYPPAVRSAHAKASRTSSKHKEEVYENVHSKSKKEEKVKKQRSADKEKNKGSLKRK", "assay": "In vitro PTPase assay, GST/SHP-1 fusion protein", "assay_type": "biochemical", "method": "In vitro PTPase activities were measured using the commercial protein tyrosine phosphatase assay kit (Upstate Biotechnology, Inc. (“UBI”)) following established procedure known to one of skill in the art. […] 100 μl of Malachite Green solution was added and incubated for 5 minutes, and the absorbance at 660 nm was measured after 5 minutes.\nThe beads were then either subjected to in vitro PTPase assays or washed 3 times in Tris buffer then subjected to in vitro PTPase assays.\nBriefly, individual PTPases (0.1 μg/reaction) in 50 μL of PTPase buffer (50 mM Tris, pH 7.4) were incubated at 22° C. for 10 minutes or as indicated in the absence or presence of inhibitory compounds. […] […] […] Relative PTPase activities were calculated based on the formula: (PTPase activity in the presence of an inhibitory compound/PTPase activity in the absence of the compound)×100%. To assess the reversibility of PTPase inhibition, GST fusion proteins of the PTPases bound on glutathione beads (Pharmacia) were pre-incubated with cold Tris buffer (50 mM Tris, pH 7.0) or Tris buffer containing the inhibitor at 4° C. for 30 minutes. The beads were then washed three times in cold Tris buffer or not washed prior to subjecting to in vitro PTPase assays."}}}
{"smiles": "O.O.O.O.O.O.O.O.O.O=C([O-])[C@@H]1[O][Sb]2([O-])([O][Sb]34([OH])[O][C@H]([C@H](O)CO)[C@H]([O]3)[C@H](C(=O)[O-])[O]4)[O][C@H]([C@H](O)CO)[C@@H]1[O]2.[Na+].[Na+].[Na+]", "note": "[sodium stibogluconate]", "values": [{"measurement": "Annexin V staining of NB4 cells", "setting": "NB4 cells; 250 μg/ml, 6 days", "result": "stained positive by Annexin V"}, {"measurement": "proliferation of NB4 cells", "setting": "NB4 cells; 12.5-400 μg/ml, MTT", "result": "markedly inhibited"}, {"measurement": "cell cycle of NB4 cells", "setting": "NB4 cells; 3 days, sodium stibogluconate 250 μg/ml, ATRA 1 μM", "result": "significant increase of cells at S phase"}, {"measurement": "cell killing, LoVo", "setting": "LoVo cells", "result": "near-complete cell killing"}, {"measurement": "IFN-alpha-induced Stat1 tyrosine phosphorylation", "setting": "Stat1", "result": "failed to enhance"}, {"measurement": "cell killing, SK-N-SH", "setting": "SK-N-SH cells", "result": "near-complete cell killing"}, {"measurement": "dephosphorylation of pNPP by SHP-1, SHP-2 and PTP1B", "setting": "SHP-1; pNPP substrate", "result": "similarly inhibited"}, {"measurement": "activity against recombinant SHP-1 of HPLC fractions and parental mixture", "setting": "SHP-1; parental mixture at Sb concentration of 10 μg/ml", "result": "inactivated SHP-1"}, {"measurement": "reversibility of SHP-1 inhibition by washing", "setting": "SHP-1; pre-incubated at 4° C. 30 minutes, beads washed 3 times", "result": "not affected by washing"}]}
